The values that follow come from patent US20190262457A1, “NOVEL ALKYLATING AGENT” (CHIBA-PREFECTURE, priority 2016, published 2019).

One series concerns A2058 cells. Description: Cytotoxicity test by WST assay, IC50 24 hours after administration. Format: cell-based, human. The note with it: WST-8. The procedure: (§1) From the cell lines mentioned above, a large intestine cancer cell line SW480 was used as cells expressing PD-1, a large intestine cancer cell line RKO was used as cells expressing PD-L1, and a malignant melanoma cell line A2058 and a pancreatic cancer cell line MIA PaCa-2 were used as cells expressing CTLA-4. The cells of each line were inoculated at 3000 cells/well to a 96-well microplate and cultured overnight. On the next day, the cells were treated with CCC07-01 having a concentration of 0.1, 1, 10, 30, 100, 300, or 1000 nM (1 μM) for 24 hours. Then, WST-8 reagent was added to each well using Cell counting kit-8, and the mixture was reacted for 2 hours. Then, the cell count was calculated at a wavelength of 450 nm by the colorimetric analysis method using a microplate reader. The method for calculating the cell count involved: 1) obtaining the mean value of a medium alone, 2) subtracting the mean value of the medium from each well, 3) obtaining the mean value of DMSO, 4) dividing the medium mean value-subtracted value by the mean value of DMSO and then multiplying by 100, and 5) obtaining the mean value of each treatment group and a standard deviation, and preparing a graph. IC50 was calculated according to the following expression: IC50=10(LOG(A/B)×(50−C)/(D−C)+LOG(B) wherein A: a higher concentration of two concentrations sandwiching 50%, B: a lower concentration of two concentrations sandwiching 50%, C: the rate of inhibition at B, and D: the rate of inhibition at A.
(§2) The cells used in the experiment were RKO (large intestine cancer), SW480 (large intestine cancer), A2058 (malignant melanoma), and MIA PaCa-2 (pancreatic cancer).
(Tetrazolium assays rely on reduction of a dye to a coloured formazan, in cell work by metabolically active cells.)

The test system of the next series is MIA PaCa-2 cells. The description is as above. It counts as cell-based, human. The note with it: MIA-PaCa2 cells, WST-8. The protocol: as §1, §2
The test system of series [1] is RKO cells. The description is as above. The conditions noted are these: WST-8. It counts as cell-based, human. The procedure: as §1, §2
The test system of series [2] is SW480 cells. The series is described as above. Format: cell-based, human. The conditions noted are these: WST-8. The procedure: as §1, §2
The subject of series [3] is RKO cells. Description: Cytotoxicity and IC50 comparison with CBI by WST assay, 48 hours. Format: cell-based, human. The conditions noted are these: WST-8. The protocol:
(§3) From the cell lines mentioned above, a large intestine cancer cell line SW480 was used as cells expressing PD-1, and a large intestine cancer cell line RKO was used as cells expressing PD-L1. An experiment was conducted to compare toxicity and IC50 between the PIP-drug conjugate compound CCC07-01 and the alkylating agent CBI used as a drug conjugate therein. The cells of each line were inoculated at 3000 cells/well to a 96-well microplate and cultured overnight. On the next day, the cells were treated with the PIP-CBI conjugate (CCC07-01) or CBI having a concentration of 0.1, 1, 10, 30, 100, 300, or 1000 nM (1 μM) for 48 hours. Then, WST-8 reagent was added to each well using Cell counting kit-8, and the mixture was reacted for 2 hours. Then, the cell count was calculated at a wavelength of 450 nm by the colorimetric analysis method using a microplate reader. The method for calculating the cell count involved: 1) obtaining the mean value of a medium alone, 2) subtracting the mean value of the medium from each well, 3) obtaining the mean value of DMSO, 4) dividing the medium mean value-subtracted value by the mean value of DMSO and then multiplying by 100, and 5) obtaining the mean value of each treatment group and a standard deviation, and preparing a graph. IC50 was calculated according to the following expression: IC50=10(LOG(A/B)×(50−C)/(D−C)+LOG(B) wherein A: a higher concentration of two concentrations sandwiching 50%, B: a lower concentration of two concentrations sandwiching 50%, C: the rate of inhibition at B, and D: the rate of inhibition at A.

In series [4] the test system is SW480 cells. Described as above. Format: cell-based, human. The note with it: WST-8. The procedure:
as §3

A short description of series [5]: log-P (octanol/water partition coefficient) by HPLC, indole/curcumin calibration curve. Format: physicochemical. The conditions noted are these: calculated from indole/curcumin calibration curve, listed as CCC07-001. The protocol:
The polyamides were further analyzed for log-P (octanol/water partition coefficient) by HPLC. The retention times of 2 types of compounds (compound names) having a known log-P value and the polyamides were measured in the presence of a mixed solvent of 0.1% aqueous acetic acid solution and acetonitrile by HPLC using isocratic elution. […] The log-P values of the polyamides were calculated from the curve.

The test system of series [6] is subcutaneously transplanted RKO tumor. Description: Tumor volume in RKO-transplanted humanized NSG mice. It counts as in vivo. The note with it: humanized NSG mouse. The protocol: 1×10^7 cells of human PBMC (Precision Bioservices Inc.) were intravenously transplanted to each NSG mouse (NOD.Cg-Prkdc^scidI/2rg^tm1Wj1/SzJ; Charles River Laboratories Japan, Inc.) to prepare a humanized NSG mouse. One week after the PBMC transplantation, 1×10^7 RKO cells (ATCC) were subcutaneously transplanted to each humanized NSG mouse. After the transplantation, CCC07-01 was intravenously administered at 2.3 or 9.2 mg/kg to the mouse when tumorigenesis was able to be confirmed. The tumor size was measured over time, and the tumor volume (mm^3) was calculated according to the expression: Tumor volume=[…]. One week after the CCC07-01 administration, the spleen was harvested and homogenized in 2% FBS/PBS to prepare a cell suspension. The spleen cells were stained with a fluorescently labeled anti-human CD4 antibody, anti-human CD8 antibody and anti-human Foxp3 antibody and analyzed for the numbers of cytotoxic T cells (CD8-positive cells) and regulatory T cells (Treg: CD4-positive and Foxp3-positive cells) using a flow cytometer. Statistical processing was performed by the Mann-Whitney U test, and the significance level was set to P<0.05.

Broadly, the IC50 is the midpoint of a concentration-inhibition curve.

In the case of `CC(=O)Nc1cn(C)c(C(=O)Nc2cc(C(=O)Nc3cn(C)c(C(=O)Nc4cn(C)c(C(=O)NCCC(=O)Nc5cc(C(=O)Nc6cc(C(=O)NCCCC(=O)Nc7cc(C(=O)Nc8cn(C)c(C(=O)NCCC(=O)Nc9cc(C(=O)Nc%10cc(C(=O)Nc%11ccc%12[nH]c(C(=O)N%13CC(CCl)c%14c%13cc(O)c%13ccccc%14%13)cc%12c%11)n(C)c%10)n(C)c9)n8)n(C)c7)n(C)c6)n(C)c5)n4)n3)n(C)c2)n1` (stereo not drawn) [CCC07-01], the concentration for half-maximal inhibition (IC50) in the series with A2058 cells amounted to 11 nM; in the series on MIA PaCa-2 cells it was 189 nM; in the series on RKO cells [1], 12 nM; in the series on SW480 cells [2], 27 nM; with RKO cells [3], 4 nM; in the series with SW480 cells [4], 11 nM. Further, the logPow in series [5] is given as 3.13. Also, the T/C ratio in series [6] (2.3 mg/kg intravenous) was 56.0%; in series [6] (9.2 mg/kg intravenous), 41.5%.
